Test results as given in patent US20240217968A1, “PHARMACEUTICAL COMPOUND” (DUKE STREET BIO LIMITED, priority 2021, published 2024).

target: T1, recombinant human Flag-tagged PARP7 (amino acids 456-657) (Homo sapiens, UniProt Q7Z3E1); assay: PARP7 biochemical DELFIA assay (auto-MARylation); conditions: DELFIA readout, IC50 class
T1 construct: recombinant human Flag-tagged PARP7 (amino acids 456-657)
T1 sequence (Q7Z3E1 456-657): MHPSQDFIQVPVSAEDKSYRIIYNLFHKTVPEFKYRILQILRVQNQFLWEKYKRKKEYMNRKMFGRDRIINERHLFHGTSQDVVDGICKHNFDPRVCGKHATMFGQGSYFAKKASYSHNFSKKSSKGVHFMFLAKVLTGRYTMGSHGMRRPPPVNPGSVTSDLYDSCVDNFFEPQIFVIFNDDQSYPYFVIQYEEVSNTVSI
Method in brief: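 Flag-PARP7 (456-657), 12.5-37.5 nM stock, captured on anti-FLAG wells, preincubated 30 min with compound, then auto-MARylated with biotin-NAD+ (15 μM stock) in HEPES pH 7.5/NaCl/DTT/BSA/Tween for 2-3 h at room temperature. NAD+ quench; Eu-streptavidin DELFIA read, Ex337/Em620 nm.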

SMILES | IC50 [nM]
CC(COCCC(=O)N1CCN(c2ccc(OC(F)F)cn2)CC1)n1nc(C(F)(F)F)c2c(=O)[nH]ncc21 (single isomer, unassigned) [Compound 274] | ≤ 100
CC(COCCC(=O)N1CCN(c2cc(F)c(F)cn2)CC1)n1nc(C(F)(F)F)c2c(=O)[nH]ncc21 (single isomer, unassigned) [Compound 418] | ≤ 100
O=C(CCOCCn1nc(C(F)(F)F)c2c(=O)[nH]ncc21)N1CCN(c2nc(C(F)(F)F)co2)CC1 [Compound 314] | ≤ 100
CC(COCCC(=O)N1CCN(c2ncc(C(F)(F)F)cn2)CC1)n1cc(C(F)F)c2c(=O)[nH]ncc21 (single isomer, unassigned) [Compound 395, 3-(difluoromethyl)-1-(1-(3-oxo-3-(4-(5-(trifluoromethyl)pyrimidin-2-yl)piperazin-1-yl)propoxy)propan-2-yl)-1,5-dihydro-4H-pyrrolo[2,3-d]pyridazin-4-one] | ≤ 100
O=C(c1cccc(Cn2nc(C(F)(F)F)c3c(=O)[nH]ncc32)c1)N1CCN(c2ncc(C(F)(F)F)cn2)CC1 [Compound 407] | ≤ 100
CC(COCCC(=O)N1CCN(c2ncc(Cl)cn2)CC1)n1nc(C(F)(F)F)c2c(=O)[nH]ncc21 (stereo not shown) [Compound 186] | ≤ 100
CC(COCCC(=O)N1CCN(c2ncc(C(F)(F)F)s2)CC1)n1nc(C(F)(F)F)c2c(=O)[nH]ncc21 (stereo not shown) [Compound 259] | ≤ 100
O=C(CCOCCn1cc(C(F)(F)F)c2c(=O)[nH]ncc21)N1CCN(c2ncc(Cl)cn2)CC1 [Compound 232] | ≤ 100
CC(COCCC(=O)N1CCN(c2ncccc2F)CC1)n1nc(C(F)(F)F)c2c(=O)[nH]ncc21 (single isomer, unassigned) [Compound 368] | 100 to 1000
CC(COCCn1nc(C(F)(F)F)c2c(=O)[nH]ncc21)C(=O)N1CCN(c2ncc(C(F)(F)F)cn2)CC1 (stereo not shown) [Compound 202] | ≤ 100
CC1CN(C(=O)CCOCCN2C(=O)CCc3c2cn[nH]c3=O)CCN1c1ncc(C(F)(F)F)cn1 (stereo not shown) [Compound 308] | ≤ 100
O=C(CCOCCN1C(=O)CCc2c1cn[nH]c2=O)N1CCN(c2nc3ccccc3o2)CC1 [Compound 277] | ≤ 100
[2H]C([2H])(OCCC(=O)N1CCN(c2ncc(C(F)(F)F)cn2)CC1)C(C)n1nc(C(F)(F)F)c2c(=O)[nH]ncc21 (single isomer, unassigned) [Compound 423] | ≤ 100
O=C(NCCCOc1cccc2c(=O)[nH]ncc12)N1CCN(c2ncc(C(F)(F)F)cn2)CC1 [Compound 36] | 1000 to 10000
CC(COCCC(=O)N1CCN(c2ccc(OC(F)(F)F)cn2)CC1)n1nc(C(F)(F)F)c2c(=O)[nH]ncc21 (single isomer, unassigned) [Compound 253] | ≤ 100
CC1(C)CN(C(=O)CCOCCn2cc(C(F)(F)F)c3c(=O)[nH]ncc32)CCN1c1ccc(C(F)(F)F)cn1 [Compound 237] | ≤ 100
O=C(CCOCCn1cc(C(F)(F)F)c2c(=O)[nH]ncc21)N1CCN(c2nc3ccc(Cl)cc3o2)CC1 [Compound 382] | ≤ 100
CC(COCCC(=O)N1CCN(c2ncc(C#N)o2)CC1)n1nc(C(F)(F)F)c2c(=O)[nH]ncc21 (stereo not shown) [Compound 329] | ≤ 100
CC(COCCC(=O)N1CCN(c2ncc(C#N)cn2)CC1)n1nc(C(F)(F)F)c2c(=O)[nH]ncc21 (single isomer, unassigned) [Compound 322, 2-(4-(3-(2-(4-oxo-3-(trifluoromethyl)-4,5-dihydro-1H-pyrazolo[3,4-d]pyridazin-1-yl)propoxy)propanoyl)piperazin-1-yl) pyrimidine-5-carbonitrile] | ≤ 100
O=C(CCOCCn1nc(C(F)(F)F)c2c(=O)[nH]ncc21)N1CCN(c2nc3ccccc3[nH]2)CC1 [Compound 257] | ≤ 100
N#Cc1ccc(N2CCN(C(=O)c3cccc(Cc4cccc5c4NCNC5=O)c3)CC2)nc1 [Compound 46] | 100 to 1000
O=C(CCOCCn1nc(C(F)(F)F)c2c(=O)[nH]ncc21)N1CCN(c2cc(C(F)(F)F)on2)CC1 [Compound 364] | ≤ 100
CCC(OCCCC(=O)N1CCN(c2ncc(C(F)(F)F)cn2)CC1)c1cccc2c(=O)[nH]ncc12 (single isomer, unassigned) [Compound 210] | ≤ 100
CC(COCCC(=O)N1CCN(c2ncc(C(F)(F)F)cn2)CC1)n1nc(C(F)F)c2c(=O)[nH]ncc21 (single isomer, unassigned) [Compound 436] | ≤ 100
CC1(C)CN(c2ncc(C(F)(F)F)cn2)CCN1C(=O)CCOCCn1nc(C(F)(F)F)c2c(=O)[nH]ncc21 [Compound 193] | ≤ 100
CN(C(=O)COCCn1cc(C(F)(F)F)c2c(=O)[nH]ncc21)C1CCN(c2ncc(C(F)(F)F)cn2)CC1 [Compound 385] | ≤ 100

Second part, the compound after the results:

IC50 [nM] | SMILES
≤ 100 | O=C(CCOCCn1c(CO)cc2c(=O)[nH]ncc21)N1CCN(c2ncc(C(F)(F)F)cn2)CC1 [Compound 125]
100 to 1000 | N#Cc1ccc(N2CCN(C(=O)CCOCCc3cc(C#N)cc4c(=O)[nH]ncc34)CC2)nc1 [Compound 111]
≤ 100 | Cc1ccc(N2CCN(C(=O)CCOCC(C)n3nc(C(F)(F)F)c4c(=O)[nH]ncc43)CC2)nc1 (stereo not shown) [Compound 334]
100 to 1000 | Nc1nc(N2CCN(C(=O)CCOCCc3cccc4c(=O)[nH]ncc34)CC2)ncc1C(F)(F)F [Compound 159]
≤ 100 | O=C1NCNc2c(CCOCCC(=O)N3CCN(c4ncc(C(F)(F)F)cn4)CC3)cccc21 [Compound 48]
≤ 100 | O=C(CCOCCn1ccc2c(=O)[nH]ncc21)N1CCN(c2ncc(C(F)(F)F)cn2)CC1 [Compound 10, 1-(2-(3-oxo-3-(4-(5-(trifluoromethyl)pyrimidin-2-yl)piperazin-1-yl)propoxy)ethyl)-1,5-dihydro-4H-pyrrolo[2,3-d]pyridazin-4-one]
≤ 100 | O=C(CCOCCc1cccc2c(=O)[nH]ncc12)N1CCN(c2nc3cc(Cl)ccc3o2)CC1 [Compound 172]
≤ 100 | CCn1cc(CCOCCC(=O)N2CCN(c3ncc(C(F)(F)F)cn3)CC2)c2cn[nH]c(=O)c21 [Compound 203, 1-ethyl-3-(2-(3-oxo-3-(4-(5-(trifluoromethyl)pyrimidin-2-yl)piperazin-1-yl)propoxy)ethyl)-1,6-dihydro-7H-pyrrolo[2,3-d]pyridazin-7-one]
1000 to 10000 | CC(COCCC(=O)N1CCN(c2ccc(C#N)cn2)CC1)c1cccc2c(=O)[nH]ncc12 (stereo not shown) [Compound 70]
≤ 100 | N#Cc1ccc(N2CCN(C(=O)c3cccc(Nc4cccc5c(=O)[nH]ncc45)c3)CC2)nc1 [Compound 30]
100 to 1000 | O=C(CCOCCc1cccc2c(=O)[nH]ncc12)N1CCC(c2ncc(Cl)cn2)CC1 [Compound 115]
≤ 100 | O=C(CCOCCc1c(Cl)ccc2c(=O)[nH]ncc12)N1CCN(c2ncc(C(F)(F)F)cn2)CC1 [Compound 410]
≤ 100 | O=C(CCOCCc1cccc2c(=O)[nH]ncc12)N1CCN(c2nc3ccccc3[nH]2)CC1 [Compound 213]
1000 to 10000 | N#Cc1ccc(N2CCN(C(=O)c3cccc(CN4CCc5c4cn[nH]c5=O)c3)CC2)nc1 [Compound 5]
1000 to 10000 | N#Cc1ccc(N2CCN(C(=O)c3cccc(CN4CCOc5c4cn[nH]c5=O)c3)CC2)nc1 [Compound 11]
≤ 100 | N#Cc1cnc(N2CCN(C(=O)CCOCCn3nc(C(F)(F)F)c4c(=O)[nH]ncc43)CC2)s1 [Compound 502]
≤ 100 | CC(OCCCC(=O)N1CCN(c2ncc(C(F)(F)F)cn2)CC1)c1cc(F)cc2c(=O)[nH]ncc12 (stereo not shown) [Compound 129]
